From PubChem BioAssay (NCI)
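1) Cells in 96-well plates. 2) Compound, 48 h, 5 concentrations. 3) Linear interpolation between surrounding doses. 4) Unreached endpoint = highest concentration. TGI marks complete inhibition of growth.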

Legend:
Assay in all cases: growth of human tumour cells (NCI), 48 h
[1] = test system: K-562 leukemia
[2] = test system: LXFL 529 NSCLC
[3] = test system: UACC-62 melanoma
[4] = test system: SR leukemia
[5] = test system: HOP-18 NSCLC
[6] = test system: HOP-62 NSCLC
[7] = test system: RPMI-8226 leukemia
[8] = test system: SF-295 CNS
[9] = test system: DLD-1 colon
[10] = test system: HCC-2998 colon
[11] = test system: EKVX NSCLC
[12] = test system: NCI-H460 lung
[13] = test system: ACHN renal
[14] = test system: MALME-3M melanoma
[15] = test system: M14 melanoma
[16] = test system: HCT-15 colon
[17] = test system: COLO 205 colon
[18] = test system: SF-268 CNS
[19] = test system: OVCAR-3 ovarian
[20] = test system: NCI-H522 lung
[21] = test system: SW-620 colon
[22] = test system: NCI-H23 lung
[23] = test system: M19-MEL melanoma
[24] = test system: HL-60(TB) leukemia
[25] = test system: KM12 colon
[26] = test system: SF-539 CNS
[27] = test system: 786-0 renal
[28] = test system: IGROV1 ovarian
[29] = test system: MOLT-4 leukemia
[30] = test system: SK-MEL-5 melanoma
[31] = test system: OVCAR-8 ovarian
[32] = test system: RXF 393 renal
[33] = test system: SNB-19 CNS
[34] = test system: UO-31 renal
[35] = test system: RXF-631 renal
[36] = test system: OVCAR-5 ovarian
[37] = test system: A549 NSCLC
[38] = test system: SK-MEL-2 melanoma
[39] = test system: OVCAR-4 ovarian
[40] = test system: LOX IMVI melanoma
[41] = test system: HCT-116 colon
[42] = test system: SK-MEL-28 melanoma
[43] = test system: NCI-H226 lung
[44] = test system: CAKI-1 renal
[45] = test system: HT29 colon
[46] = test system: SN12C renal
[47] = test system: UACC-257 melanoma
[48] = test system: U251 CNS
[49] = test system: KM20L2 colon
[50] = test system: CCRF-CEM leukemia
[51] = test system: XF 498 CNS
[52] = test system: SNB-78 CNS
[53] = test system: HOP-92 NSCLC
[54] = test system: A498 renal
[55] = test system: SK-OV-3 ovarian
[56] = test system: DMS 114 small cell lung
[57] = test system: SNB-75 CNS
[58] = test system: DMS 273 small cell lung
[59] = test system: TK-10 renal

`CCOC(=O)/C(C1=NCCN1)=C(\O)c1ccccc1` was tested, and the TGI [1] was > 100 µM, the TGI [2] was > 100 µM and the TGI [3] was > 100 µM. For the same compound, the TGI [4] was > 100 µM, the TGI [5] was > 100 µM and the TGI [6] was > 100 µM. For the same compound, the TGI [7] was > 100 µM, the TGI [8] was > 100 µM and the TGI [9] was > 100 µM. The TGI [10] was > 100 µM, the TGI [11] was > 100 µM and the TGI [12] was > 100 µM. The TGI [13] was > 100 µM, the TGI [14] was > 100 µM and the TGI [15] was > 100 µM. The TGI [16] was > 100 µM, the TGI [17] was > 100 µM and the TGI [18] was > 100 µM. For the same compound, the TGI [19] was > 100 µM, the TGI [20] was > 100 µM and the TGI [21] was > 100 µM. The TGI [22] was > 100 µM, the TGI [23] was > 100 µM and the TGI [24] was > 100 µM. The TGI [25] was > 100 µM, the TGI [26] was > 100 µM and the TGI [27] was > 100 µM. The TGI [28] was > 100 µM, the TGI [29] was > 100 µM and the TGI [30] was > 100 µM. For the same compound, the TGI [31] was > 100 µM, the TGI [32] was > 100 µM and the TGI [33] was > 100 µM. The TGI [34] was > 100 µM, the TGI [35] was > 100 µM and the TGI [36] was > 100 µM. For the same compound, the TGI [37] was > 100 µM, the TGI [38] was > 100 µM and the TGI [39] was > 100 µM. For the same compound, the TGI [40] was > 100 µM, the TGI [41] was > 100 µM and the TGI [42] was > 100 µM. The TGI [43] was > 100 µM, the TGI [44] was > 100 µM and the TGI [45] was > 100 µM. For the same compound, the TGI [46] was > 100 µM, the TGI [47] was > 100 µM and the TGI [48] was > 100 µM. For the same compound, the TGI [49] was > 100 µM, the TGI [50] was > 100 µM and the TGI [51] was > 100 µM.

For `Cc1ccc2c(c1)-c1c3c(nn1-c1ccccc1)-c1ccccc1SC3O2` (stereo not given), the TGI [52] was > 100 µM, the TGI [1] was > 100 µM and the TGI [2] was > 100 µM. For the same compound, the TGI [53] was > 100 µM, the TGI [5] was > 100 µM and the TGI [6] was > 100 µM. For the same compound, the TGI [7] was > 100 µM, the TGI [8] was > 100 µM and the TGI [9] was > 100 µM. The TGI [10] was > 100 µM, the TGI [11] was > 100 µM and the TGI [12] was > 100 µM. For the same compound, the TGI [13] was > 100 µM, the TGI [14] was > 100 µM and the TGI [17] was > 100 µM. The TGI [18] was > 100 µM, the TGI [19] was > 100 µM and the TGI [20] was > 100 µM. For the same compound, the TGI [21] was > 100 µM, the TGI [22] was > 100 µM and the TGI [24] was > 100 µM. The TGI [25] was > 100 µM, the TGI [54] was > 100 µM and the TGI [26] was > 100 µM. The TGI [27] was > 100 µM, the TGI [55] was > 100 µM and the TGI [28] was > 100 µM. For the same compound, the TGI [29] was > 100 µM, the TGI [31] was > 100 µM and the TGI [56] was > 100 µM. For the same compound, the TGI [32] was > 100 µM, the TGI [34] was > 100 µM and the TGI [35] was 16.1 µM. The TGI [36] was > 100 µM, the TGI [37] was > 100 µM and the TGI [57] was > 100 µM. The TGI [38] was > 100 µM, the TGI [40] was > 100 µM and the TGI [41] was > 100 µM. The TGI [42] was > 100 µM, the TGI [45] was > 100 µM and the TGI [47] was > 100 µM. The TGI [58] was > 100 µM, the TGI [48] was > 100 µM and the TGI [49] was > 100 µM. For the same compound, the TGI [59] was > 100 µM, the TGI [50] was > 100 µM and the TGI [51] was > 100 µM.

For `c1cncc(C2N3CCCCC3[C@@H]3c4[nH]c5ccccc5c4CCN23)c1` (stereo not given in full), the TGI [52] was > 100 µM, the TGI [1] was > 100 µM and the TGI [2] was > 100 µM. The TGI [3] was > 100 µM, the TGI [53] was > 100 µM and the TGI [5] was > 100 µM. For the same compound, the TGI [6] was > 100 µM, the TGI [7] was > 100 µM and the TGI [8] was > 100 µM. The TGI [9] was > 100 µM, the TGI [11] was > 100 µM and the TGI [12] was > 100 µM. The TGI [13] was > 100 µM, the TGI [15] was > 100 µM and the TGI [16] was > 100 µM. For the same compound, the TGI [18] was > 100 µM, the TGI [19] was > 100 µM and the TGI [21] was > 100 µM. The TGI [22] was > 100 µM, the TGI [23] was > 100 µM and the TGI [24] was > 100 µM. For the same compound, the TGI [54] was > 100 µM, the TGI [26] was > 100 µM and the TGI [27] was > 100 µM. The TGI [55] was > 100 µM, the TGI [28] was > 100 µM and the TGI [29] was > 100 µM. The TGI [30] was > 100 µM, the TGI [31] was > 100 µM and the TGI [32] was > 100 µM. The TGI [33] was > 100 µM, the TGI [34] was > 100 µM and the TGI [35] was > 100 µM. For the same compound, the TGI [36] was > 100 µM, the TGI [37] was > 100 µM and the TGI [57] was > 100 µM. The TGI [38] was > 100 µM, the TGI [39] was > 100 µM and the TGI [41] was > 100 µM. The TGI [42] was > 100 µM, the TGI [44] was > 100 µM and the TGI [45] was > 100 µM. For the same compound, the TGI [46] was > 100 µM, the TGI [47] was > 100 µM and the TGI [58] was > 100 µM. The TGI [48] was > 100 µM, the TGI [49] was > 100 µM and the TGI [59] was > 100 µM. For the same compound, the TGI [50] was > 100 µM and the TGI [51] was > 100 µM.

`CSc1nnc(CCC(=O)Nc2c(C)cccc2C)o1` was tested, and the TGI [52] was > 100 µM, the TGI [1] was > 100 µM and the TGI [2] was > 100 µM. For the same compound, the TGI [3] was > 100 µM, the TGI [53] was > 100 µM and the TGI [5] was > 100 µM. The TGI [6] was > 100 µM, the TGI [7] was > 100 µM and the TGI [8] was > 100 µM. The TGI [9] was > 100 µM, the TGI [10] was > 100 µM and the TGI [11] was > 100 µM. The TGI [12] was > 100 µM, the TGI [14] was > 100 µM and the TGI [15] was > 100 µM. The TGI [16] was > 100 µM, the TGI [17] was > 100 µM and the TGI [18] was > 100 µM. The TGI [19] was > 100 µM, the TGI [20] was > 100 µM and the TGI [21] was > 100 µM. For the same compound, the TGI [22] was > 100 µM, the TGI [23] was > 100 µM and the TGI [24] was > 100 µM. For the same compound, the TGI [25] was > 100 µM, the TGI [54] was > 100 µM and the TGI [26] was > 100 µM. The TGI [27] was > 100 µM, the TGI [55] was > 100 µM and the TGI [28] was > 100 µM. For the same compound, the TGI [29] was > 100 µM, the TGI [30] was > 100 µM and the TGI [31] was > 100 µM. For the same compound, the TGI [56] was > 100 µM, the TGI [32] was > 100 µM and the TGI [33] was > 100 µM. For the same compound, the TGI [34] was > 100 µM, the TGI [35] was > 100 µM and the TGI [36] was > 100 µM. For the same compound, the TGI [37] was > 100 µM, the TGI [57] was > 100 µM and the TGI [38] was > 100 µM. For the same compound, the TGI [39] was > 100 µM, the TGI [40] was > 100 µM and the TGI [41] was > 100 µM. For the same compound, the TGI [42] was > 100 µM, the TGI [43] was > 100 µM and the TGI [44] was > 100 µM. For the same compound, the TGI [45] was > 100 µM, the TGI [46] was > 100 µM and the TGI [47] was > 100 µM. For the same compound, the TGI [48] was > 100 µM, the TGI [49] was > 100 µM and the TGI [59] was > 100 µM. For the same compound, the TGI [50] was > 100 µM and the TGI [51] was > 100 µM.
